Data from patent US20220202774A1, “PHARMACEUTICAL COMPOSITION FOR PREVENTION OR TREATMENT OF SPINAL CORD INJURY OR SPINAL STENOSIS” (NEUROBIT SCIENCE CO., LTD., priority 2019, published 2022).
Read-outs that look alike come from different tables or passages of the source.

Key:
[1] = tested on: LPS-induced PGE2 production in RAW 264.7 (a murine macrophage cell line); assay: Inhibition of production of LPS-induced PGE2 by macrophage cell line; format: cell-based; settings: Mus musculus
Procedure: RAW 264.7 (a murine macrophage cell line) was obtained from Korea Cell Line Bank (KCLB). RAW 264.7 was cultured in Dulbecco's Modified Eagle Medium (DMEM) containing 10% fetal bovine serum (FBS), penicillin (100 units/mL), and streptomycin sulfate (100 μg/mL) at 37° C. and in a humidified atmosphere of 5% carbon dioxide in air.
Using DMEM, 1 mL each of RAW 264.7 with a concentration of 5×10^5 cells/mL was seeded in 24 wells. The seeded cells were left overnight, the medium was changed, and then the drug was treated at an appropriate concentration. After incubating for 1 hour, LPS was treated at 1 μg/ml, followed by incubation for 24 hours (or an appropriate length of time). The supernatant was taken and diluted 5-fold. 150 μl of an assay buffer was added to Non-Specific Binding (NSB) wells, and 100 μl of the assay buffer was added to zero standard (Bo) wells. 100 μl of standard sample and 50 μl of PGE2 conjugates were added to the remaining wells (excluding the NSB wells). 50 μl of PGE2 antibody solution was added to the wells and shaken for 2 hours. The contents of each well were suctioned off, and the wells were washed 5 times with wash buffer. 200 μl of para-nitrophenyl phosphate (pNPP) substrate was added to all wells. After storing the wells at room temperature (in a clean bench) for 1 hour, 50 μl of a stop solution was added, and absorbance was measured at 405 nm. […]

[2] = tested on: RAW 264.7 (the murine macrophage cell line); assay: Cytotoxicity of macrophages (MTT assay); format: cell-based; settings: Mus musculus, RAW264.7; RAW 264.7, LPS 1 μg/ml, 24 hours; read-out: Cell viability(μM) (IC50, MTT assay)
Procedure: The physiological activity of 3-(4-chlorophenyl)-4-(4-aminosulfonyl-phenyl)-1-methyl-1H-pyrrole-2,5-dione prepared according to Example 2 has been expressed in terms of IC50, which is the concentration at which there is 50% inhibition of the activity of an enzyme. On the other hand, for the cytotoxicity of the compounds according to the present invention, cell viability values (IC50) were measured using the MTT assay.
RAW 264.7 (the murine macrophage cell line) was cultured in DMEM containing 10% FBS, penicillin (100 units/ml), and streptomycin sulfate (100 μg/ml) at 37° C. and in a humidified atmosphere of 5% carbon dioxide in air. Cells were collected using centrifugation and a scraper. The cells were added at a concentration of 1×10^5 cells/well to wells of a 96-well plate containing Roswell Park Memorial Institute (RPMI) 1640 medium, which includes 10% FBS. 3 beta, 4 beta-epoxy-8a-isobutyryloxyguaia-1(10),11, (13)-diene-12.6a-olide was dissolved in methylsulfoxide (DMSO) as a solvent. […] After one night, samples and LPS (1 μg/ml) were added to the wells, and the plate was incubated for 24 hours. […]

[3] = tested on: chronic mechanical allodynia-induced rats; assay: Paw withdrawal threshold (von Frey) in chronic mechanical allodynia-induced rats after compression of the cauda equina; format: in vivo, Sprague-Dawley rats
Procedure: For experiments related to the present invention, a total of 167 male Sprague-Dawley rats (250 to 270 g, Samtako, Osan, Korea) were used. The rats were kept in an environment of room temperature (23±1° C.) and 60±10% humidity under a 12-hour light/12-hour dark cycle (light on from 07:30 to 19:30) and given free access to water and food. The rats were housed individually in cages (410×282×153 mm, clear polycarbonate) lined with aspen shaving bedding and fed a commercial diet (5L79, PMI Nutrition International, St Louis, Mo.) and a commercial standard feed (Lab Diet 5L791 Purina Mills, Richmond, Ind.). All animal experiments were performed in accordance with the guidelines of the Animal Protection Committee of Kyung Hee University (Permission No. KHUASP(SE)-15-006) and in compliance with the ethical guidelines of the International Association for the Study of Pain.
More specifically, the rats were anesthetized by administering chloral hydrate (500 mg/kg) as an intraperitoneal injection, the backside of each rat was shaved, and the L4 to S2 vertebral plates were exposed.
Next, the ligamenta flava between L4 and L5 were removed. […]
Mechanical allodynia was assessed by detecting responses to stimulation with calibrated von Frey filaments and evaluated in terms of paw withdrawal threshold (PWT). […]

TNF-α mRNA = assay: RT-PCR of TNF-α mRNA in cauda equina of chronic mechanical allodynia-induced rats; format: in vivo, Sprague-Dawley rats; settings: 30 minutes after administering
Procedure: (§1) Only rats with a weight in the range of 350 to 380 g and in which chronic mechanical allodynia (2.5-4.0 g) was induced on the 28th day of compression of the cauda equina were selected as the experimental group. The rats were randomly assigned to three experimental groups treated with a vehicle, celecoxib, or the compound according to the present invention.
(§2) Celecoxib (Sigma, St. Louis, Mo.) or the compound according to the present invention was dissolved in methyl pyrrolidone:Tween-80:saline (1:1:8, 100 μl) and injected intraperitoneally at a dose of 2, 5, or 10 mg/kg. The vehicle group was injected with 1-methyl-2-pyrrolidone (1-methyl-2-pyrrolidone:Tween-80:saline (1:1:8)) at an equal dose.
(§3) At the time of the peak effect (30 minutes after injection of drug), the rats were anesthetized by injecting chloral hydrate (500 mg/kg) and perfused with 0.1 M PBS (pH 7.4), followed by perfusion with a solution containing 4% paraformaldehyde added to PBS.
(§4) For analysis at the molecular level, the rats were perfused with 0.1 M PBS, and a 20 mm-thick section of the cauda equina with the site of injury at the center was isolated and kept frozen at −80° C. until use.
(§5) RT-PCR of TNF-α, IL-1β, IL-6, iNOS, and GAPDH was performed. […]

IL-6 mRNA = assay: RT-PCR of IL-6 mRNA in cauda equina of chronic mechanical allodynia-induced rats; format: in vivo, Sprague-Dawley rats; settings: 30 minutes after administering
Procedure: as §1, §2, §3, §4, §5

iNOS mRNA = assay: RT-PCR of iNOS mRNA in cauda equina of chronic mechanical allodynia-induced rats; format: in vivo, Sprague-Dawley rats; settings: 30 minutes after administering
Procedure: as §1, §2, §3, §4, §5

IL-1β mRNA = assay: RT-PCR of IL-1β mRNA in cauda equina of chronic mechanical allodynia-induced rats; format: in vivo, Sprague-Dawley rats
Procedure: as §1, §2, §3, §4, §5

PGE2 = PGE2 level in cauda equina fibers by ELISA; format: in vivo, Sprague-Dawley rats
Procedure: as §1, §2, §4
Levels of PEG2 in the cauda equina fibers were analyzed using a PEG2 ELISA kit (Monoclonal, Cayman Chemical Ann Arbor, Mich.) according to the manufacturer's instructions.
An experiment was performed using rats administered with celecoxib and the compound according to the present invention to confirm through RT-PCR whether production of inflammatory mediators is inhibited. Another experiment was performed to confirm through ELISA whether production of PGE2 is inhibited.

## CN1C(=O)C(c2ccc(Cl)cc2)=C(c2ccc(S(N)(=O)=O)cc2)C1=O [3-(4-chlorophenyl)-4-(4-aminosulfonyl-phenyl)-1-methyl-1H-pyrrole-2,5-dione]
[1]; RAW264.7, 24 h, RAW 264.7, LPS 1 μg/ml, 24 hours, read-out: IC50(μM) PGE2
  IC50: 0.0087 µM
[1]; RAW264.7, RAW 264.7, LPS-induced, text/FIG. 2, read-out: IC50 value for inhibition of PGE2 production
  IC50: 0.00595 µM
[2]
  IC50: > 10 µM
[3]; 2, 5, 10 mg/kg intraperitoneal, 30 minutes after injecting
  PWT compared to the vehicle group: increased significantly in a dose-dependent manner
[3]; high dose, intraperitoneal
  duration of analgesic effect: 3 h
TNF-α mRNA
  expression of TNF-α mRNA: significantly reduced
IL-6 mRNA
  expression of IL-6 mRNA: significantly reduced
iNOS mRNA
  expression of iNOS mRNA: significantly reduced
IL-1β mRNA
  expression of IL-1β mRNA: significantly reduced
PGE2
  PGE2 production compared to the vehicle group: significantly reduced
